Results on 19 molecules are retold here after patent US8912221B2, “Biaryl amide derivatives” (Hoffmann-La Roche Inc., priority 2010, dated 2014).

pIC50, pKi: −log10 of the molar value.

Test [1] concerns the target T1, Bradykinin-1 receptor (Homo sapiens (Human), UniProt P46663). Put plainly: Receptor Binding Assay. The settings on record: membranes from CHO-K1 cells overexpressing Bradykinin-1 receptor; 6 nM [3H]Kallidin (Des Arg10, Leu9); read-out: B1R Binding Ki. On the procedure: Binding assays were done with membranes from CHO-K1 cells overexpressing Bradykinin-1 receptor.
For binding, Bradykinin-1 receptor antagonist compounds were added in various concentrations in 50 mM Tris pH 7.4, 5 mM MgCl2 together with 6 nM Kallidin (Des Arg^10, Leu^9), [3,4-Prolyl-3,4-^3H(N)] (PerkinElmer, 1.85-4.44 TBq/mmol) to 40 μg membrane protein containing approximately 1 fmol Bradykinin-1 receptor and incubated for 15 min at 27° C. To determine non-specific binding 10 μM Lys-(Des-Arg^9)-Bradykinin (Bachem) was added. Membranes were harvested through GF/B (glass fiber filter; PerkinElmer) plates, equilibrated with 0.5% polyethylenimine, air dried at 50° C. for 2 hr. Radioactivity was determined by counting in a topcounter (NXT Packard). Specific binding was defined as total binding minus nonspecific binding and typically represents about 90-95% of the total binding. Antagonist activity is expressed as Ki: inhibitor concentration required for 50% inhibition of specific binding corrected for the concentration of the radioligand.

Test [2] has as its target T1, Bradykinin-1 receptor. Put plainly: Calcium Mobilization Assay. Type of test: cell-based. Conditions: GeneBLAzer Bradykinin (B1)-NFAT-bla CHO-K1 cells; antagonist activity, FLIPR; read-out: Ca mobilization IC50. How it is done:
Calcium Mobilization Assay
GeneBLAzer® Bradykinin (B1)-NFAT-bla CHO-K1 cells (from Invitrogen) stably overexpressing the human bradykinin 1 receptor were cultured in DMEM (high glucose) supplemented with 10% dialysed FBS, 1% NEAA (non essential amino acids) 1% penicillin/streptomycin, 1% G418 and 0.1 mg/ml zeocin.
For the assay cells were grown overnight in 384-well black clear flat bottom polystyrene plates (Costar) at 37° C. at 5% CO2. After washing with DMEM, 20 mM Hepes, 2.5 mM probenecid, 0.1% BSA (DMEM assay buffer) cells were loaded with 4 μM Fluo-4 in the same DMEM assay buffer for 2 hours at 30° C. Excess dye was removed and cells were washed with DMEM assay buffer. 384-well compound plates were prepared with DMEM assay buffer/0.5% DMSO with or without various concentrations of test compounds. Usually compounds were tested for agonist and antagonist activity.
Test compounds were added to the assay plate and agonist activity was monitored as fluorescence for 80 seconds with a FLIPR (488 nm excitation; 510-570 nm emission; Molecular Devices). […] Increases in intracellular calcium are reported as maximum fluorescence after agonist exposure minus basal fluorescence before exposure. Antagonist activity is indicated as inhibitor concentration required for 50% inhibition of specific calcium increases.
In general terms: Calcium assays in cells follow changes in intracellular calcium, usually with a dye or a luminescent sensor.

T1 sequence (P46663 whole entry): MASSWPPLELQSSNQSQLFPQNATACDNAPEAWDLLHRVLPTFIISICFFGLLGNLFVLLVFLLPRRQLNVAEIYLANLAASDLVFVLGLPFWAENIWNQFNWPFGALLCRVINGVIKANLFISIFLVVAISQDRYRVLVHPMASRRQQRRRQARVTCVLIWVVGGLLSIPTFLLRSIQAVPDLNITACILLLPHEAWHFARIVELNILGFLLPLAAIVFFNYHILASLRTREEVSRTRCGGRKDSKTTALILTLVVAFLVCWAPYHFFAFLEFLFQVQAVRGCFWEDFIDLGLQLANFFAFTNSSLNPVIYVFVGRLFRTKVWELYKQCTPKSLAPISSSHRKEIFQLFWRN

In general, pKi refers to −log10 of the Ki, conventionally taken in molar units. By pIC50 is commonly meant the negative decadic logarithm of the IC50, by convention in mol/L. Regarding `C[C@@H](NC(=O)C1(NC(=O)c2ccno2)COC1)c1ccc(-c2cc(Cl)cc(Cl)c2OCC(F)F)cc1F` [Example 32, Isoxazole-5-carboxylic acid (3-{(R)-1-[3′,5′-dichloro-2′-(2,2-difluoro-ethoxy)-3-fluoro-biphenyl-4-yl]-ethylcarbamoyl}-oxetan-3-yl)-amide], in test [1], the pKi was 8.64. Also, in test [2], the negative logarithm of the IC50 (pIC50) was 9.70.

Turning to `COc1ncc(C(=O)NC2(C(=O)N[C@H](C)c3ccc(-c4cc(Cl)cc(Cl)c4OCC(F)F)cc3F)COC2)cn1` [Example 35, 2-Methoxy-pyrimidine-5-carboxylic acid (3-{(R)-1-[3′,5′-dichloro-2′-(2,2-difluoro-ethoxy)-3-fluoro-biphenyl-4-yl]-ethylcarbamoyl}-oxetan-3-yl)-amide], the pKi in test [1] was 8.48. Further, in test [2], the pIC50 is 9.52.

Take `C[C@@H](NC(=O)C1(NC(=O)c2cncnc2)COC1)c1ncc(-c2cc(Cl)cc(Cl)c2OCC(F)F)cc1F` [Example 11, Pyrimidine-5-carboxylic acid [3-((R)-1-{5-[3,5-dichloro-2-(2,2-difluoro-ethoxy)-phenyl]-3-fluoro-pyridin-2-yl}-ethylcarbamoyl)-oxetan-3-yl]-amide]: in test [1], the pKi is 8.59. Moreover, the pIC50 in test [2] was 9.10.

As for `C[C@@H](NC(=O)C1(NC(=O)C(F)(F)F)COC1)c1ncc(-c2cc(Cl)cc(F)c2-c2nnn(C)n2)cc1F` [Example 21, 3-(2,2,2-Trifluoro-acetylamino)-oxetane-3-carboxylic acid ((R)-1-{5-[5-chloro-3-fluoro-2-(2-methyl-2H-tetrazol-5-yl)-phenyl]-3-fluoro-pyridin-2-yl}-ethyl)-amide], the pKi in test [1] was 8.37. Besides, the pIC50 in test [2] is 9.00.

As for `C[C@@H](NC(=O)C1(NC(=O)c2ccno2)COC1)c1ncc(-c2cc(Cl)cc(Cl)c2OCC(F)F)cc1F` [Example 10, Isoxazole-5-carboxylic acid [3-((R)-1-{5-[3,5-dichloro-2-(2,2-difluoro-ethoxy)-phenyl]-3-fluoro-pyridin-2-yl}-ethylcarbamoyl)-oxetan-3-yl]-amide], the pKi in test [1] was 8.33. The pIC50 in test [2] was 8.48.

Consider `Cc1nc(-c2c(F)cc(Cl)cc2-c2cnc([C@@H](C)NC(=O)C3(NC(=O)c4ccnnc4)COC3)c(F)c2)no1` [Example 25, Pyridazine-4-carboxylic acid [3-((R)-1-{5-[5-chloro-3-fluoro-2-(5-methyl-[1,2,4]oxadiazol-3-yl)-phenyl]-3-fluoro-pyridin-2-yl}-ethylcarbamoyl)-oxetan-3-yl]-amide], for which, in test [1], the pKi was 9.00. In addition, in test [2], the pIC50 is 9.40.

As for `COC(=O)c1c(Cl)cccc1-c1ccc([C@@H](C)NC(=O)C2(NC(=O)c3cncnc3)COC2)c(F)c1` [Example 7, 3-Chloro-3′-fluoro-4′-[(R)-1-({3-[(pyrimidine-5-carbonyl)-amino]-oxetane-3-carbonyl}-amino)-ethyl]-biphenyl-2-carboxylic acid methyl ester], the pKi in test [1] is 8.80. The pIC50 in test [2] is 10.00.

Consider `Cc1nc(-c2c(F)cc(Cl)cc2-c2cnc([C@@H](C)NC(=O)C3(NC(=O)c4cccnc4)COC3)c(F)c2)no1` [Example 30, N-[3-((R)-1-{5-[5-Chloro-3-fluoro-2-(5-methyl-[1,2,4]oxadiazol-3-yl)-phenyl]-3-fluoro-pyridin-2-yl}-ethylcarbamoyl)-oxetan-3-yl]-nicotinamide], for which the pKi in test [1] was 8.89. The pIC50 in test [2] is 9.70.

As for `Cc1nc(-c2c(F)cc(Cl)cc2-c2cnc([C@@H](C)NC(=O)C3(NC(=O)c4ccno4)COC3)c(F)c2)no1` [Example 3, Isoxazole-5-carboxylic acid [3-((R)-1-{5-[5-chloro-3-fluoro-2-(5-methyl-[1,2,4]oxadiazol-3-yl)-phenyl]-3-fluoro-pyridin-2-yl}-ethylcarbamoyl)-oxetan-3-yl]-amide], in test [1], the pKi was 8.62. The pIC50 in test [2] is 9.40.

`Cc1nc(-c2c(F)cc(Cl)cc2-c2cnc([C@@H](C)NC(=O)C3(NC(=O)c4cc(F)cc(C(F)(F)F)c4)COC3)c(F)c2)no1` [Example 1, 3-(3-Fluoro-5-trifluoromethyl-benzoylamino)-oxetane-3-carboxylic acid ((R)-1-{5-[5-chloro-3-fluoro-2-(5-methyl-[1,2,4]oxadiazol-3-yl)-phenyl]-3-fluoro-pyridin-2-yl}-ethyl)-amide]: the pKi in test [1] was 8.59. In addition, in test [2], the pIC50 is 9.52.

Turning to `Cc1cc(C(=O)NC2(C(=O)N[C@H](C)c3ncc(-c4cc(Cl)cc(F)c4-c4nnn(C)n4)cc3F)COC2)on1` [Example 20, 3-Methyl-isoxazole-5-carboxylic acid [3-((R)-1-{5-[5-chloro-3-fluoro-2-(2-methyl-2H-tetrazol-5-yl)-phenyl]-3-fluoro-pyridin-2-yl}-ethylcarbamoyl)-oxetan-3-yl]-amide], the pKi in test [1] is 8.80. The pIC50 in test [2] is 9.40.

As for `Cc1nnsc1C(=O)NC1(C(=O)N[C@H](C)c2ncc(-c3cc(Cl)cc(Cl)c3OCC(F)F)cc2F)COC1` [Example 41, 4-Methyl-[1,2,3]thiadiazole-5-carboxylic acid [3-((R)-1-{5-[3,5-dichloro-2-(2,2-difluoro-ethoxy)-phenyl]-3-fluoro-pyridin-2-yl}-ethylcarbamoyl)-oxetan-3-yl]-amide], in test [1], the pKi was 8.15. Moreover, the pIC50 in test [2] was 8.44.

As for `COCC(=O)NC1(C(=O)N[C@H](C)c2ncc(-c3cc(Cl)cc(Cl)c3OCC(F)F)cc2F)COC1` [Example 42, 3-(2-Methoxy-acetylamino)-oxetane-3-carboxylic acid ((R)-1-{5-[3,5-dichloro-2-(2,2-difluoro-ethoxy)-phenyl]-3-fluoro-pyridin-2-yl}-ethyl)-amide], in test [1], the pKi is 6.92. In addition, in test [2], the pIC50 was 6.70.

On to `Cc1nc(-c2c(F)cc(Cl)cc2-c2cnc([C@@H](C)NC(=O)C3(NC(=O)c4cncnc4)COC3)c(F)c2)no1` [Example 5, Pyrimidine-5-carboxylic acid [3-((R)-1-{5-[5-chloro-3-fluoro-2-(5-methyl-[1,2,4]oxadiazol-3-yl)-phenyl]-3-fluoro-pyridin-2-yl}-ethylcarbamoyl)-oxetan-3-yl]-amide], for which the pKi in test [1] is 8.96. For the same molecule, the pIC50 in test [2] was 10.00.

Turning to `C[C@@H](NC(=O)C1(NC(=O)C(F)(F)F)COC1)c1ccc(-c2cc(Cl)cc(F)c2-c2nnn(C)n2)cc1F` [Example 22, 3-(2,2,2-Trifluoro-acetylamino)-oxetane-3-carboxylic acid {(R)-1-[5′-chloro-3,3′-difluoro-2′-(2-methyl-2H-tetrazol-5-yl)-biphenyl-4-yl]-ethyl}-amide], the pKi in test [1] was 8.77. In test [2], the pIC50 was 9.30.

As to `COc1ncc(C(=O)NC2(C(=O)N[C@H](C)c3ncc(-c4cc(Cl)cc(F)c4-c4nnn(C)n4)cc3F)COC2)cn1` [Example 36, 2-Methoxy-pyrimidine-5-carboxylic acid [3-((R)-1-{5-[5-chloro-3-fluoro-2-(2-methyl-2H-tetrazol-5-yl)-phenyl]-3-fluoro-pyridin-2-yl}-ethylcarbamoyl)-oxetan-3-yl]-amide], in test [1], the negative-log Ki (pKi) is 8.92. Further, the pIC50 in test [2] is 9.70.

For `Cc1nnc(C(=O)NC2(C(=O)N[C@H](C)c3ccc(-c4cc(Cl)cc(Cl)c4OCC(F)F)cc3F)COC2)o1` [Example 38, 5-Methyl-[1,3,4]oxadiazole-2-carboxylic acid (3-{(R)-1-[3′,5′-dichloro-2′-(2,2-difluoro-ethoxy)-3-fluoro-biphenyl-4-yl]-ethylcarbamoyl}-oxetan-3-yl)-amide], the pKi in test [1] is 8.37. Besides, in test [2], the pIC50 was 9.22.

On to `Cc1nc(-c2c(F)cc(Cl)cc2-c2cnc([C@@H](C)NC(=O)C3(NC(=O)c4nccn4C)COC3)c(F)c2)no1` [Example 26, 1-Methyl-1H-imidazole-2-carboxylic acid [3-((R)-1-{5-[5-chloro-3-fluoro-2-(5-methyl-[1,2,4]oxadiazol-3-yl)-phenyl]-3-fluoro-pyridin-2-yl}-ethylcarbamoyl)-oxetan-3-yl]-amide], for which the pKi in test [1] was 6.30. Moreover, the pIC50 in test [2] is 6.31.

As to `Cc1cc(C(=O)NC2(C(=O)N[C@H](C)c3ncc(-c4cc(Cl)cc(Cl)c4OCC(F)F)cc3F)COC2)on1` [Example 9, 3-Methyl-isoxazole-5-carboxylic acid [3-((R)-1-{5-[3,5-dichloro-2-(2,2-difluoro-ethoxy)-phenyl]-3-fluoro-pyridin-2-yl}-ethylcarbamoyl)-oxetan-3-yl]-amide], the pKi in test [1] is 8.29. Besides, the pIC50 in test [2] is 8.96.
